In patent US8398959B2, “Compositions and methods for imparting a sunless tan with functionalized adjuvants” (Conopco, Inc., priority 2010, dated 2013):
“Also recorded” adds a separate entry of the source.

Legend:
[1] = Enhancement activity of adjuvant in DHA/glycine solution, color change by colorimeter; settings: adjuvant 0.5-2 wt.% in solution with DHA and glycine
Source text: A control solution was made as follows: Mixing vials were charged with 2.5 weight percent glycine, 2.5 percent by weight DHA and 0.2 M citric/citrate buffer solution to produce the desired control solution, pH 5.6. The balance of the control solutions was water. Compositions consistent with the invention were made as follows: about 0.5 to 2.0 weight percent adjuvant, 2.5 weight percent DHA and 2.5 weight percent glycine were combined, resulting in compositions consistent with this invention with water as the balance. The initial pH of the resulting adjuvant comprising solution was measured and adjusted with NaOH or citric acid, if necessary, to yield an adjuvant comprising solution, pH of about 5.6. The solutions were placed in a 35° C. oven and color change was assessed visually (by taking photos) and by measuring L*a*b* values utilizing a conventional colorimeter. L*a*b* values of the solutions were measured and assessed as set forth below.
Enhancement activity of pyrrole-2-carboxylic acid in solution was carried out on the solutions described in Table 2 and the color of the reaction system was detected and assessed with a colorimeter.
Delta L* was used to characterize color change whereby the larger Delta L* value reflects darker coloring. […] Pyrrole-2-carboxylic acid, therefore, is believed to catalyze the DHA/glycine Maillard reaction.

[2] = Enhancement activity of adjuvant in DHA composition on artificial skin (VitroSkin), color by colorimeter; settings: for color enhancement activity on artificial skin (in words): adjuvant 0.5-2 wt.% in composition with DHA; for color quality (delta a*/delta b*, visual examination) in words: composition with DHA on artificial skin
Protocol: General procedure for in vitro testing: DHA, 2.5 weight percent, and 0.5 to 2.0 weight percent adjuvant were formulated into the base (as described in Table 1). About 20 mg of resulting composition was applied to VitroSkin® made available from IMS Company and applied in a circular pattern having a diameter around 2.4 cm. The artificial skin was pre-hydrated under 50% RH for 24 hours before use, and the skin was kept at a temperature of 35° C. under constant relative humidity (RH, 50%). Color development was evaluated with a colorimeter as defined below.
Enhancement activity of pyrrole-2-carboxylic acid was carried out on artificial skin when formulated in a ready-to-use composition with ingredients as described in Table 4 and color was detected and assessed with a colorimeter.

Row | Compound | DHA enhancement activity / color enhancement in solution (in words) [1] | color enhancement activity on artificial skin (in words) [2] | color quality (delta a*/delta b*, visual examination) in words [2] | DHA enhancement activity / color enhancement in solution (in words) ([1]; listed as 1-H-indole-2-carboxylic acid)
1 | O=C(O)c1ccc[nH]1 [pyrrole-2-carboxylic acid] | significantly enhanced DHA activity at all concentrations tested | DHA color enhancement activity at all tested concentrations | longer lasting and more natural color | –
2 | O=C(O)c1cc2ccccc2[nH]1 [1H-indole-2-carboxylic acid] | excellent color enhancement | – | – | excellent coloring properties
3 | O=C(CO)CO [DHA, 1,3-dihydroxy-2-propanone, reference compound] | – | – | yellowish | –
4 | Cn1cccc1C(=O)O [1-methyl-2-pyrrolecarboxylic acid] | excellent DHA enhancement activity | color enhancement activity; also recorded: excellent DHA enhancer | more natural color via visual examination; also recorded: better than that of the control at all concentrations tested | –
5 | O=C(O)c1ccco1 [2-furoic acid] | – | color enhancement of artificial skin | – | –
6 | CC(=O)c1cccn1C [2-acetyl-1-methylpyrrole] | surprisingly good color enhancement | color enhancement of artificial skin | – | –
7 | COC(=O)c1ccc[nH]1 [methyl-2-pyrrole carboxylate] | surprisingly good color enhancement | – | – | –
8 | CC(=O)c1ccco1 [2-acetylfuran] | – | color enhancement of artificial skin | – | –
9 | CC(=O)c1ccc[nH]1 [2-acetylpyrrole] | surprisingly good color enhancement | color enhancement of artificial skin | – | –
